Source: PubChem BioAssay AID790 (SRMLSC, 2007)
Calls of active or inactive are those of the source. The rule behind the calls is not given here.

Assays:
[1] = test system: S. cerevisiae vps1Δ mutant growth inhibition; experiment: vps1Δ single mutant yeast growth suppression – S. cerevisiae, background strain comparison, dose response (AID 790)
[2] = as above; conditions: S. cerevisiae vps1Δ mutant growth inhibition; measured here: background strain growth inhibition

Row | Structure (SMILES) | IC50 [1] | IC50 [2]
1 | Cc1ccc(C(=O)OCn2ncc(Cl)c(Cl)c2=O)cc1 | 4.06 µM | 4.62 µM
2 | CCC(=O)N(CCO)Cc1cc2ccc(C)c(C)c2[nH]c1=O | > 10 µM (inactive) | > 10 µM
3 | Cc1ccc(SC(=O)COc2ccc(C)c(C)c2)cc1 | > 10 µM (inactive) | > 10 µM
4 | CCC(=O)c1ccc(N2CCN(C(=O)c3ccc(Br)cc3)CC2)c(F)c1 | > 10 µM (inactive) | > 10 µM
5 | Cc1cccc(-c2c3c(=O)n(C)c(=O)n(C)c3cn2C2CCCCC2)c1 | > 10 µM (inactive) | > 10 µM
6 | Cc1ccc(C)c(C(=O)NCc2ccncc2)c1 | > 10 µM (inactive) | > 10 µM
7 | Clc1ccc(-c2cnc(Oc3ccccc3)nc2)cc1 | > 10 µM (inactive) | > 10 µM
8 | Cc1ccc(-c2csc3nnc(SCC(=O)Nc4cccc(C)n4)n23)cc1 | > 10 µM (inactive) | > 10 µM
9 | O=C(NCCc1ccccc1)C1CCN(S(=O)(=O)N2CCCC2)CC1 | > 10 µM (inactive) | > 10 µM
10 | COc1ccccc1N1CCN(C2CCN(C(=O)c3cc(OC)c(OC)c(OC)c3)CC2)CC1 | > 10 µM (inactive) | > 10 µM
11 | O=C(Cn1nnc(-c2ccc(S(=O)(=O)N3CCCC3)cc2)n1)NCC1CCCO1 (stereo not given) | > 10 µM (inactive) | > 10 µM
12 | Cc1ccn2cc(-c3nonc3C)cc2c1 | > 10 µM (inactive) | > 10 µM
13 | CCOc1cc(/C=C\[N+](=O)[O-])ccc1OCC(=O)Nc1ccccc1C | 25.4 µM | > 10 µM
14 | CCOC(=O)NC(Nc1ccc(S(N)(=O)=O)cc1)(C(=O)OCC)C(F)(F)F (stereo not given) | > 10 µM (inactive) | > 10 µM
15 | Cc1ccc(CN2CCN(/N=C/c3cc(Br)ccc3O)CC2)cc1 | > 10 µM (inactive) | > 10 µM
16 | COc1cccc(C(=O)N2CCN(C3CCC(c4ccccc4)CC3)CC2)c1OC (stereo not given) | 23.3 µM | 23.9 µM
17 | c1ccc(Nc2cc(-c3ccccc3)nc3ncnn23)cc1 | 5.22 µM | > 10 µM
18 | CCOc1ccc(-c2[nH]ncc2Oc2ccccc2OCC)c(O)c1 | 23.7 µM (inactive) | 16 µM
19 | CC(C)Oc1ccc(/C(O)=C2/C(=O)C(=O)N(CCN(C)C)C2c2ccco2)cc1 (stereo not given) | > 10 µM (inactive) | > 10 µM
20 | Cc1cccc(CS(=O)(=O)Cc2ccc(C(=O)NCCCN3CCCC3)o2)c1 | > 10 µM (inactive) | > 10 µM

Row | Structure (SMILES) | IC50 [1] | IC50 [2]
21 | COc1ccc(NC(=S)NC(NC(=O)c2ccc(Cl)cc2Cl)C(Cl)(Cl)Cl)c([N+](=O)[O-])c1 (stereo not given) | > 10 µM (inactive) | > 10 µM
22 | Clc1cc(Br)ccc1OCCOCCN1CCOCC1 | > 10 µM (inactive) | > 10 µM
23 | COCCCNc1ccnc2c(Cl)cccc12 | > 10 µM (inactive) | > 10 µM
24 | Cc1ccc(C2(C(F)(F)F)N=C3Sc4cc(C)cc(C)c4N3C(=O)N2)cc1 (stereo not given) | 1.37 µM (inactive) | 1.08 µM
25 | CCN1CCN(c2c(Cl)cccc2NC(=O)c2ccc(Br)o2)CC1 | > 10 µM (inactive) | > 10 µM
26 | O=C(OCn1ncc(Cl)c(Cl)c1=O)c1ccccc1Cl | 5.41 µM | 16.6 µM
27 | CC(=O)NC1C(c2nc3ccccc3s2)=C(c2ccccc2)C(=O)N1c1ccc(C)cc1 (stereo not given) | 2.18 µM (inactive) | 1.92 µM
28 | O=C(COc1ccc(Cl)cc1Cl)N1CCN(C/C=C/c2ccccc2)CC1 | 13.2 µM (inactive) | 7.14 µM
29 | CCOC(=O)COc1ccccc1C1Nc2ccccc2C(=O)N1c1cccc(Cl)c1 (stereo not given) | > 10 µM (inactive) | > 10 µM
30 | CCN1C(=O)c2ccc(C(=O)NCc3ccccc3)cc2C1=O | > 10 µM (inactive) | > 10 µM
31 | CS(=O)(=O)N1CCC(C(=O)NCCN2CCN(Cc3ccccc3)CC2)CC1 | > 10 µM (inactive) | > 10 µM
32 | CC1=CC(C)(C)Nc2ccc(OC(=O)CN3C(=O)c4cccc5cccc(c45)C3=O)cc21 | > 10 µM (inactive) | > 10 µM
33 | O=c1cccc2n1CC1CC2CN(S(=O)(=O)c2ccccc2)C1 (stereo not given) | > 10 µM (inactive) | > 10 µM
34 | Cc1ccc(NS(=O)(=O)c2cc(C(=O)N3CCOCC3)ccc2C)cc1 | > 10 µM (inactive) | > 10 µM
35 | CCOc1cccc(C(=O)Nc2cccnc2)c1 | > 10 µM (inactive) | > 10 µM
36 | CCN(CC)CCCN(Cc1cc2cc3c(cc2[nH]c1=O)OCCO3)C(=O)Nc1ccc(F)cc1 | > 10 µM (inactive) | > 10 µM
37 | O=C(O)c1cc(-c2ccc(/C=N/Nc3ccc(Cl)cc3)o2)ccc1Cl | 4.51 µM | 16.4 µM
38 | COc1ccc(NC(=O)N(C2CCCCC2)C(C)c2cccnc2)c(OC)c1 (stereo not given) | 16.5 µM | 16.7 µM
39 | Cc1nnc(-c2cccc(Br)c2)c2cn(-c3ccccc3)nc12 | > 10 µM (inactive) | > 10 µM
40 | O=C(CCl)c1ccc(Cc2ncc(C(F)(F)F)cc2Cl)s1 | 9.7 µM (inactive) | 8.68 µM
